According to US6936628B2, “Oral administration of epothilones” (Bristol-Myers Squibb Company, priority 2002, dated 2005):
Like-named read-outs stand apart in the source and are kept apart here.

Columns and labels:
[1] = rat, in vivo
[2] = system: human ovarian carcinoma xenograft A2780; assay: Antitumor activity by parenteral administration to rats, A2780 xenograft; type: in vivo, nude rats
Procedure: The required number of animals needed to detect a meaningful response were pooled at the start of the experiment and each was given a subcutaneous implant of a tumor fragment (≈50 mg) with a 13-gauge trocar. For treatment of early-stage tumors, the animals were again pooled before distribution to the various treatment and control groups. For treatment of animals with advanced-stage disease, tumors were allowed to grow to the pre-determined size window (tumors outside the range were excluded) and animals were evenly distributed to various treatment and control groups. Treatment of each animal was based on individual body weight. Treated animals were checked daily for treatment related toxicity/mortality. Each group of animals was weighed before the initiation of treatment (Wt1) and then again following the last treatment dose (Wt2). The difference in body weight (Wt2−Wt1) provides a measure of treatment-related toxicity.
Tumor response was determined by measurement of tumors with a caliper twice a week, until the tumors reach a predetermined “target” size of 1 gm. Tumor weights (mg) were estimated from the formula: Tumor weight=(length×width^2)÷2
Antitumor activity was evaluated at the maximum tolerated dose (MTD) which is defined as the dose level immediately […] which excessive toxicity (i.e. more than one death) occurred. The MTD was frequently equivalent to OD. When death occurred, the day of death was recorded. Treated mice dying prior to having their tumors reach target size were considered to have died from drug toxicity. No control mice died bearing tumors less than target size. Treatment groups with more than one death caused by drug toxicity were considered to have had excessively toxic treatments and their data were not included in the evaluation of a compound's antitumor efficacy.
Tumor response end-point was expressed in terms of tumor growth delay (T−C value), defined as the difference in time (days) required for the treated tumors (T) to reach a predetermined target size compared to those of the control group (C).
To estimate tumor cell kill, the tumor volume doubling time was first calculated with the formula: TVDT=Median time (days) for control tumors to reach target size−Median time (days) for control tumors to reach half the target size and Log cell kill=T−C÷(3.32×TVDT)
Compound A was evaluated versus the human ovarian carcinoma xenograft A2780 grown in nude rats. […] In comparison, Compound B produced 3.3 LCK at its MTD (2.4 mg/kg/inj, IV, every 8 days×2).

[3] = Single dose pharmacokinetic study in dogs; type: in vivo, beagle dogs
Procedure: The vehicle used for both IV and oral dose was propylene glycol:ethanol:phosphate buffer (pH 7.4-8.0) (40:5:55). […] The VSS value after IV administration was 4.7 L/kg, which is greater than the reported total body water of 0.6 L/kg in dogs, indicating significant extravascular distribution of Compound A. The T-HALF of Compound A was 3.9 and 3.1 h after IV and oral administration, respectively.

[4] = Single dose IV toxicokinetic study in dogs; type: in vivo; conditions: both sexes, dog, plasma, IV infusion; for Cmax: combined across gender
Procedure: The single dose IV toxicokinetics of Compound A were evaluated in dogs as a part of a toxicology study. Compound A, prepared in 50 mM citrate buffer (pH 5), was given by IV infusion (over approximately 2-3 min period) at nominal doses of 0.07 and 0.35 mg/kg (the actual doses were 0.055 and 0.27 mg/kg, respectively) to 2 dogs/sex/dose. Blood samples were collected at 5 and 30 minutes, and at 1, 3, 6, 12, and 24 h after dosing. Plasma concentrations of Compound A were determined using a validated LC/MS/MS assay with a standard curve range of 2-500 ng/mL. […] Definitive comparison between sex was not made due to limited sample size per sex; however, it appeared that there were no marked differences in the systemic exposure to Compound A between male and female dogs.

[5] = Effects of formulation on antitumor efficacy; type: in vivo
[6] = Single dose IV toxicokinetics in rats; type: in vivo; conditions: both sexes, rat, plasma, IV 1, 5 and 7 mg/kg, across doses and sex
Procedure: The single dose IV toxicokinetics of Compound A in rats were evaluated as a part of a toxicology study. Compound A, prepared in 50 mM citrate buffer (pH 5), was given intravenously (over approximately 1-2 min period) at doses of 1, 5, and 7 mg/kg to 3 rats/gender/dose. Blood samples were collected at 3, 15, and 30 minutes, and at 1, 3, 6, 12, and 24 h after dosing. Plasma concentrations of Compound A were determined using a validated LC/MS/MS assay with a standard curve range of 2-500 ng/mL. […] Systemic exposures were reasonably similar between male and female rats. […] Furthermore, there appeared to be no differences in the toxicokinetics of Compound A between male and female rats.

[7] = vehicle 1 versus vehicle 2
Procedure: In another pharmacokinetic study, fasted male Sprague-Dawley rats, assigned to two IA groups (2 mg/kg) and one oral (8 mg/kg) group (n=3/group), were administered a single dose of Compound A. Compound A was prepared for IA administration in two separate vehicles: vehicle 1, cremophor:ethanol:water (10:10:80), and vehicle 2, ethanol:phosphate buffer, 0.05 M, pH 7.4 (6:94). The vehicle for the oral administration was ethanol:phosphate buffer, 0.3 M, pH 8 (18:82). Samples were collected at 10, 15, 30, and 45 min, and at 1, 2, 4, 6, 8, 10, 24, and 48 hours after dosing.

[8] = Stability of aqueous solution (time for 5% drug loss, t95); type: physicochemical; conditions: 37° C.
[9] = system: sc Pat-7 human ovarian carcinoma; assay: Minimum effective infusional dose regimen versus sc Pat-7; type: in vivo, mice; conditions: constant-rate IV infusion over 10 hr
[10] = Stability of diluted solutions; type: physicochemical; conditions: diluted with 0.9% Sodium Chloride Injection, 5° C. or room temperature and room light
[11] = Water solubility (statement); type: physicochemical
Procedure: For these reasons Compound A may be formulated in an entirely aqueous excipient system for parenteral administration. To determine whether differences in the dosing vehicle may affect the antitumor activity of Compound A, a direct head-to-head comparison of the antitumor efficacy of Compound A formulated in either cremophor/ethanol/water (10:10:80, v/v/v) or sodium acetate buffer (30 mM, pH 5.0) was conducted. No formulation related effect was observed.

## C/C(=C\c1csc(CN)n1)[C@@H]1C[C@@H]2O[C@]2(C)CCC[C@H](C)[C@H](O)[C@@H](C)C(=O)C(C)(C)[C@@H](O)CC(=O)O1 (relative stereo) [Compound A, [1S-[1R*,3R*(E),7R*,10S*,11R*,12R*,16S*]]-3-[2-[2-(aminomethyl)-4-thiazolyl]-1-methylethenyl]-7,11-dihydroxy-8,8,10,12,16-pentamethyl-4,17-dioxabicyclo[14.1.0]heptadecane-5,9-dione]
[1]
  drug related material in bile: No drug related material was detected
[1]; iv, 2 mg/kg
  percent of the dose recovered in the urine as parent: approximately 18%
[1]; po, 8 mg/kg
  percent of the dose recovered in the urine as parent: ~2.4%
[2]; A2780 in nude rats, IV, every 8 days×2, at MTD
  LCK: 0.7
[2]; nude rats bearing A2780, IV, every 8 days×2
  MTD: 3 mg/kg/inj
[3]; IV 0.5 mg/kg
  CLT: about 25.7 mL/min/kg
  T-HALF: 3.9 h
[3]; male, beagle, dog, plasma, IV 0.5 mg/kg, read-out: VSS
  Vd: 4.7 L/kg
[3]; male, beagle, dog, plasma, oral 1 mg/kg vs IV 0.5 mg/kg, read-out: mean absolute oral bioavailability
  bioavailability: 40%
[3]; oral 1 mg/kg
  T-HALF: 3.1 h
[4]; 0.055 mg/kg
  AUC: 48.3 ng·h/mL
  Cmax: 104 ng/mL
[4]; 0.27 mg/kg
  AUC: 362 ng·h/mL
  Cmax: 664 ng/mL
[5]; formulated in cremophor/ethanol/water (10:10:80, v/v/v)
  LCK: 3.3
[5]; formulated in sodium acetate buffer (30 mM, pH 5.0)
  LCK: 3.4
[6]
  AUC: 159 to 1940 ng·h/mL
  Cmax: 183 to 3910 ng/mL
[7]
  increase in systemic exposure with cremophor vehicle: about 4 fold
[8]; pH 2.5
  time for 5% drug loss (t95): < 0.2 h
[8]; pH 7
  time for 5% drug loss (t95): approximately 14 h
[9]; 2 mg/kg
  Tumor growth delay equivalent to LCK: 0.1
[9]; 4 mg/kg
  Tumor growth delay equivalent to LCK: 0.7
[9]; 8 mg/kg
  Tumor growth delay equivalent to LCK: 1.1
[9]; 16 mg/kg
  Tumor growth delay equivalent to LCK: 1.7
[10]
  time solutions are stable after final dilution: ≤ 24 h
[11]
  water solubility: highly water-soluble
